Among the data in patent US9139585B2 (Merck Sharp & Dohme Corp., priority 2011, dated 2015) are IC50 values, retold here.

One may read the pIC50 as the negative decadic logarithm of the IC50, by convention in mol/L.

pIC50: −log10 of the molar value. Like-named read-outs stand apart in the source and are kept apart here.

Assay [1] concerns the target Kir1.1 (ROMK1) (Homo sapiens (Human), UniProt P48048). Nature of the assay: Electrophysiology Assay (whole cell voltage clamp, IonWorks Quattro). The assay is classed as cell-based. The note with it: read-out: EP Assay IC50. From the text:
Several assays may be used to measure functional inhibition of the ROMK channel by compounds of the instant invention. One assay that can be used is an electrophysiology assay that measures the electrical current that is generated as potassium permeates through the channel.
Block of Kir1.1 (ROMK1) currents was examined by whole cell voltage clamp (Hamill et. al. Pfluegers Archives 391:85-100 (1981)) using the IonWorks® Quattro automated electrophysiology platform (Molecular Devices, Sunnyvale, Calif.). Chinese hamster ovary cells stably expressing Kir1.1 channels were maintained in T-75 flasks in cell culture media in a humidified 10% CO2 incubator at 37° C. Prior to an experiment, Kir1.1 expression was induced by overnight incubation with 1 mM sodium butyrate. On the day of the experiment, cells were dissociated with 2.5 ml of Versene™ (Invitrogen 15040-066) for approximately 6 minutes at 37° C. and suspended in 10 ml of bath solution containing (in mM): 150 NaCl, 10 KCl, 2.7 CaCl2, 0.5 MgCl2, 5 HEPES, pH 7.4. After centrifugation, the cell pellet was resuspended in approximately 4.0 ml of bath solution and placed in the IonWorks® instrument. The intracellular solution consisted of (in mM): 80 K gluconate, 40 KCl, 20 KF, 3.2 MgCl2, 3 EGTA, 5 Hepes, pH 7.4. Electrical access to the cytoplasm was achieved by perforation in 0.13 mg/ml amphotericin B for 4 minutes. Amphotericin B (Sigma A-4888) was prepared as a 40 mg/ml solution in DMSO.
Voltage protocols and current recordings were performed using the IonWorks® HT software/hardware system. Currents were sampled at 1 kHz. No correction for liquid junction potentials was used. The test pulse, consisting of a 100 ms step to 0 mV from a holding potential of −70 mV, followed by a 100 ms voltage ramp from −70 mV to +70 mV, was applied before and after a 6 minutes compound incubation period. Test compounds were prepared by diluting DMSO stock solutions into the bath solution at 3× the final concentration and placed in the instrument in 96-well polypropylene plates. Current amplitudes were measured using the IonWorks® software. To assess compound potency, the fractional block during the voltage step to 0 mV was calculated in Microsoft® Excel (Microsoft, Redmond, Calif.), and dose-response curves were fitted with Igor Pro 4.0 (WaveMetrics, Lake Oswego, Oreg.).
For orientation: Patch clamp records ionic current or voltage across a cell membrane.

In assay [2] the target is hROMK (hKir1.1) (Homo sapiens (Human), UniProt P48048). Nature of the assay: Thallium Flux Assay (ROMK channel functional thallium flux, FLIPR-Tetra). To be noted: HEK293 cells stably expressing hROMK (hKir1.1); read-out: Thallium Flux Assay IC50. The class given is cell-based. Here is the method: Another ROMK functional assay makes use of the ability of thallium to permeate through open ROMK channels and increase the fluorescence of a dye previously loaded into the cells. Under control conditions, cells loaded with dye and exposed to thallium-containing medium display a time-dependent increase in fluorescence, the rate of which depends on number of functional channels. When cells are incubated in the presence of a channel inhibitor, the increase in fluorescence is attenuated in a concentration-dependent manner, and IC50 values of inhibition by compounds can be accurately determined. This assay has been established with cell lines expressing either human, or rat ROMK channels, and operates in 384-well format.
HEK293 cells stably expressing hROMK (hKir1.1) were grown at 37° C. in a 10% CO2 humidified incubator in complete growth media: Dulbecco's Modified Eagle Medium supplemented with non-essential amino acids, Penicillin/Streptomycin/Glutamine, G418 and FBS. At >80% confluency, the media was aspirated from the flask and the sample was rinsed with 10 ml Calcium/Magnesium-free PBS. […] To dislodge the cell, the side of the flask was gently banged with a hand. The cells were triturated completely and then transferred to 25 ml complete media. The sample was then centrifuged at 1,500 rpm for 6 minutes, followed by resuspension in complete growth media and then cell concentration was determined. […] Under ideal growth conditions and appropriate tissue culture practices, this cell line is stable for 40-45 passages.
FluxOR Kit Components (Invitrogen F10017)
• FluxOR™ Reagent (Component A) • FluxOR™ Assay Buffer (Component B)—10× Concentrate • PowerLoad™ Concentrate (Component C)—100× Concentrate • Probenecid (Component D)—Lyophilized sample is kept at −20° C. Water soluble, 100× after solubilization in 1 ml water. […] Store at 4° C. • Thallium sulfate (Tl2SO4) Concentrate (Component G)—50 mM in water. Store at 4° C. • DMSO (dimethyl sulfoxide, Component H)—1 ml (100%) Reagent Preparation— FluxOR Working Solutions • 1000× FluxOR™ Reagent: Reconstitute a vial of component A in 100 μl DMSO; Mix well; Store 10 μl aliquots at −20° C. • 1× FluxOR™ Assay Buffer: Dilute Component B 10-fold with water; Adjust pH to 7.4 with Hepes/NaOH; Filter and store at 4° C. • Probenecid/Assay Buffer: 100 ml of 1× FluxOR™ Assay Buffer; 1 ml of reconstituted component D; Store at 4° C. • Loading Buffer (per microplate): 10 μl 1000× FluxOR™ Reagent; 100 μl component C; 10 ml Probenecid/Assay Buffer • Compound Buffer (per microplate): 20 ml Probenecid/Assay Buffer; 0.3 mM ouabain (10 mM ouabain in water can be stored in amber bottle/aluminum foil at room temperature);
Test compound • 1× FluxOR™ Chloride-Free Buffer: Prepare 1× working solution in water. Can be stored at room temperature • Stimulant Buffer (prepared at 5× final concentration in 1× FluxOR™ Chloride-Free Buffer): 7.5 mM Thallium sulfate and 0.75 mM Potassium sulfate (to give a final assay concentration of 3 mM Thallium/0.3 mM Potassium). Store at 4° C. when not in use. If kept sterile, this solution is good for months. Assay Protocol—
The ROMK channel functional thallium flux assay is performed in 384 wells, using the FLIPR-Tetra instrument. HEK-hKir1.1 cells are seeded in Poly-D-Lysine microplates and kept in a 37° C.-10% CO2 incubator overnight. On the day of the experiment, the growth media is replaced with the FluxOR™ reagent loading buffer and incubated, protected from light, at ambient temperature (23-25° C.) for 90 min. The loading buffer is replaced with assay buffer±test compound followed by 30 min incubation at ambient temperature, where the Thallium/Potassium stimulant is added to the microplate.
• 1. Seed HEK-hKir1.1 cells (50 μl at 20,000 cells/well) in 384-well PDL coated Microplates • 2. Allow cells to adhere overnight in humidified 37° C./10% CO2 incubator • 3. Completely remove cell growth media from microplate and replace with 25 μl loading buffer • 4.

Setting [3] is: Chinese hamster ovary cells stably expressing Kir1.1, block during voltage step to 0 mV.

Sequence of hROMK (hKir1.1) (P48048 whole entry): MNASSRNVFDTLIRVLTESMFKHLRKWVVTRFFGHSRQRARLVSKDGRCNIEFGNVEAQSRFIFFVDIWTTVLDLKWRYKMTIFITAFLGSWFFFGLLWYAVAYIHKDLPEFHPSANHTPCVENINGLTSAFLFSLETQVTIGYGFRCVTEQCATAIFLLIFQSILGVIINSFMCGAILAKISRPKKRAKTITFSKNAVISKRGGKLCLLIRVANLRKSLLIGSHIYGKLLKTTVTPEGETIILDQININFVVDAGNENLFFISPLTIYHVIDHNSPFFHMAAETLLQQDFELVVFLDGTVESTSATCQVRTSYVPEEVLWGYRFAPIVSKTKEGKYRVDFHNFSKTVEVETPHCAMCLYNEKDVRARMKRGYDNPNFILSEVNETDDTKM
Sequence of Kir1.1 (ROMK1) (P48048 whole entry, species assumed): as the sequence (P48048 whole entry) above

Regarding `Cc1cc(-n2cnnn2)ncc1[C@@H](O)CN1CCN(C[C@H](O)c2ccc3c(c2C)COC3=O)CC1` (single isomer, unassigned) [Example 35A], the pIC50 is 7.54 in assay [1] (setting [3]) and 6.98 in assay [2].
`Cc1cc(-n2cnnn2)ncc1[C@@H](O)CN1CCN(C[C@H](O)c2ccc3c(c2C)COC3=O)CC1` (single isomer, unassigned) [Example 35B]: the pIC50 in assay [1] (setting [3]) is 7.49; in assay [2] it was 6.56.
With `Cc1nc(-n2cnnn2)ccc1[C@@H](O)CN1CCN(C[C@H](O)c2ccc3c(c2C)COC3=O)CC1` (single isomer, unassigned) [Example 36A], the pIC50 in assay [1] (setting [3]) is 7.26; in assay [2], 6.36.
On to `Cc1nc(-n2cnnn2)ccc1[C@@H](O)CN1CCN(C[C@H](O)c2ccc3c(c2C)COC3=O)CC1` (single isomer, unassigned) [Example 36B], for which the pIC50 is 7.62 in assay [1] (setting [3]) and 6.77 in assay [2].
For `Cc1c([C@@H](O)CN2CCN(C[C@H](O)c3ccc4c(c3)C[C@H](C)OC4=O)CC2)ccc2c1COC2=O` (single isomer, unassigned) [Example 37A], the values for the pIC50 in assay [1] (setting [3]) and in assay [2] were 7.15 and 6.16, respectively.
Taken in the same sequence, the figures for `Cc1c([C@@H](O)CN2CCN(C[C@H](O)c3ccc4c(c3)C[C@H](C)OC4=O)CC2)ccc2c1COC2=O` (single isomer, unassigned) [Example 37B] were 7.50 and 7.31.
For the molecule `Cc1c([C@@H](O)CN2CCN(C[C@H](O)c3ccc4c(c3)C[C@@H](C)OC4=O)CC2)ccc2c1COC2=O` (single isomer, unassigned) [Example 38A], the negative logarithm of the IC50 (pIC50) in assay [1] (setting [3]) was 7.76; in assay [2], 7.16.
`Cc1c([C@@H](O)CN2CCN(C[C@H](O)c3ccc4c(c3)C[C@@H](C)OC4=O)CC2)ccc2c1COC2=O` (single isomer, unassigned) [Example 38B]: the results for the pIC50 in assay [1] (setting [3]) and in assay [2] were 7.54 and 7.48, respectively.
For `Cc1c([C@@H](O)CN2CCN(C[C@@H](O)c3ccc4c(c3)CCS4(=O)=O)CC2)ccc2c1COC2=O` (single isomer, unassigned) [Example 43A] the same measures were 7.02 and 7.28.
Consider `COc1cc(C(O)CN2CCN(CC(O)c3ccc4c(c3)C[C@H](C)OC4=O)CC2)ncc1C#N` (single isomer, unassigned) [Example 44A], for which the results for the pIC50 in assay [1] (setting [3]) and in assay [2] were 6.82 and 6.15, respectively.
With `COc1cc(C(O)CN2CCN(CC(O)c3ccc4c(c3)C[C@H](C)OC4=O)CC2)ncc1C#N` (single isomer, unassigned) [Example 44B], the pIC50 is 7.74 in assay [1] (setting [3]) and 6.61 in assay [2].
For the molecule `COc1cc(C(O)CN2C3COCC2CN(C[C@H](O)c2ccc4c(c2C)COC4=O)C3)ncc1C#N` (stereo in doubt) [Example 25, (R)-6-(1-Hydroxy-2-(7-(2-hydroxy-2-(4-methyl-1-oxo-1,3-dihydroisobenzofuran-5-yl)ethyl)-3-oxa-7,9 diazabicyclo[3.3.1]nonan-9-yl)ethyl)-4-methoxynicotinonitrile], the pIC50 in assay [1] was 6.96; in assay [2] it was 7.69.
For `COc1cc(C(O)CN2C3COCC2CN(C[C@H](O)c2ccc4c(c2C)COC4=O)C3)ncc1C#N` (stereo in doubt) [Example 26, (R)-6-(1-Hydroxy-2-(7-(2-hydroxy-2-(4-methyl-1-oxo-1,3-dihydroisobenzofuran-5-yl)ethyl)-3-oxa-7,9 diazabicyclo[3.3.1]nonan-9-yl)ethyl)-4-methoxynicotinonitrile] the same measures were 7.15 and 7.31.
Take `Cc1c([C@@H](O)CN2CCN(C[C@H](O)c3ccc4c(c3C)COC4=O)C3(CCCC3)C2)ccc2c1COC2=O` [Example 1, 5,5′-{6,9-Diazaspiro[4.5]decane-6,9-diylbis[(1R)-1-hydroxyethane-2,1-diyl]}bis(4-methyl-2-benzofuran-1(3H)-one)]: the values for the pIC50 in assay [1] (setting [3]) and in assay [2] were 6.87 and 6.51, respectively.
On to `Cc1c([C@@H](O)CN2CCN(C[C@H](O)c3ccc4c(c3C)COC4=O)C(C)(C)C2)ccc2c1COC2=O` [Example 2, 5,5′-{(2,2-dimethylpiperazine-1,4-diyl)bis[(1R)-1-hydroxyethane-2,1-diyl]}bis(4-methyl-2-benzofuran-1(3H)-one)], for which the pIC50 in assay [1] (setting [3]) was 7.39; in assay [2], 6.95.
For `Cc1c([C@@H](O)CN2C[C@@H]3C[C@H]2CN3S(=O)(=O)c2ccc(C#N)cc2)ccc2c1COC2=O` [Example 3, 4-((1S,4S)-5-((R)-2-Hydroxy-2-(4-methyl-1-oxo-1,3-dihydroisobenzofuran-5-yl)ethyl)-2,5-diazabicyclo[2.2.1]heptan-2-ylsulfonyl)benzonitrile] the same measures were 6.70 and 6.20.
Turning to `Cc1nc(C(O)CN2C3CCC2C2CCC3N2C[C@H](O)c2ccc3c(c2C)COC3=O)ccc1C#N` (stereo partly drawn) [Example 7, 6-(1-Hydroxy-2-{10-[(2R)-2-hydroxy-2-(4-methyl-1-oxo-1,3-dihydro-2-benzofuran-5-yl)ethyl]-9,10-diazatricyclo[4.2.1.1^2,5]dec-9-yl}ethyl)-2-methylpyridine-3-carbonitrile], the pIC50 is 7.35 in assay [1] (setting [3]) and 6.94 in assay [2].
In the case of `Cc1c([C@@H](O)CN2[C@@H]3CC[C@H]2CN(c2ccc(C#N)cn2)C3)ccc2c1COC2=O` [Example 10, 6-((1R,5S)-8-((R)-2-Hydroxy-2-(4-methyl-1-oxo-1,3-dihydroisobenzofuran-5-yl)ethyl)-3,8-diazabicyclo[3.2.1]octan-3-yl)nicotinonitrile], the figures for the pIC50 in assay [1] (setting [3]) and in assay [2] were 6.50 and 6.19, respectively.
